According to patent US9862746B2, “Compositions and methods relating to hindering DOT1L recruitment by MLL-fusion proteins” (The Regents of the University of Michigan, priority 2013, dated 2018):
Read-outs that look alike come from different tables or passages of the source.

Tests used:
ENL = biological target: T1, ENL (Homo sapiens, UniProt Q03111); experiment: SPR competitive binding assay of small molecules, ENL; conditions: SPR competitive based assay; read-out: ENL IC50 ± SD
T1 construct: against AF9(497-568) and ENL (489-559) proteins running different tested concentrations over CM5 chip; MBP (pMSCG9-LIC vector); made in house; host or cells: Escherichia coli BL21 (DE3)
T1 sequence (Q03111 489-559): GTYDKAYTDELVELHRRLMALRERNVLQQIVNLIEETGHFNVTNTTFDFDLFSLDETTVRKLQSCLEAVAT
From the text: (§1) To further validate the binding of the confirmed compounds and identify potential promiscuous inhibitors, several secondary assays have been developed to support hit confirmation and the hit-to-probe optimization process. In order to determine that the compounds bind effectively to the target and disrupt protein-protein interaction, a SPR competitive binding assay was used. This assay uses a platform that differs from the FP-based assay where DOT1L recombinant protein (residues […]) is immobilized on a CM5 chip, allowing for testing of the inhibitors for their ability to disrupt AF9-DOT1L protein-protein interactions.
This class of compounds was also tested for their binding against ENL protein, which is highly homologous with AF9.

AF9 [1] = biological target: T2, AF9 (Homo sapiens, UniProt P42568); experiment: Saturation Transfer Difference (STD) NMR; format: binding
T2 sequence (P42568 1-568): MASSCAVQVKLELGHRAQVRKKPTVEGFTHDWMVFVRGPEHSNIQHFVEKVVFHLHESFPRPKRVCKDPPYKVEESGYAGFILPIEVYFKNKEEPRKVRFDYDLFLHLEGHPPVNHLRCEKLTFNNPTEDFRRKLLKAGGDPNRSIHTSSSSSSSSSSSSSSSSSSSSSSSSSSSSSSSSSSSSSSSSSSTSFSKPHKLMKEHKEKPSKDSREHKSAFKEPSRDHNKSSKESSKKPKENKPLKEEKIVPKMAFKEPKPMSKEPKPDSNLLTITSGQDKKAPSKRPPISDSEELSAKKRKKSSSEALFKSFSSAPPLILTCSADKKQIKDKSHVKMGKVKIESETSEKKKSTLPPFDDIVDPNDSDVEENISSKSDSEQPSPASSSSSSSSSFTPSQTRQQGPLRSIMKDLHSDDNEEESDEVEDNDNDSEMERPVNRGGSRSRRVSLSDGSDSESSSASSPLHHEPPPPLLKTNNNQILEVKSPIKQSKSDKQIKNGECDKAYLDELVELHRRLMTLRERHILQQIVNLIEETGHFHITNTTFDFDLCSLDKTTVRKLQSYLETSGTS
Protocol: (§2) C) Globally fitted concentration series of 38 (100, 50, 25, 12.5 and 6.25 μM) binding to immobilized AF9 using OctetRed System (see Example 12).
(§3) To provide further validation of the hit selection in addition to the biochemical assays Saturation Transfer Difference (STD), NMR spectroscopy was used. NMR spectroscopy has been successfully utilized to detect and characterize the direct binding of small-molecule compounds to large biomolecules. This technique is also allowing characterization of the binding interactions and maps the ligand-protein contacts in the bound state, delineating which chemical moieties of the ligand molecule are key for molecular recognition by the protein (group epitope mapping, FIG. 20A). […] The direct binding of 38 was also confirmed with ThermoFluor biophysical binding assay. ThermoFluor exploits a well-known biophysical phenomenon where small changes in the intrinsic melting temperature of proteins in the presence of ligands are related to the equilibrium-binding constant. Compounds that interact with the native form of the protein will shift the equilibrium to the left, increasing the Tm, the temperature at which half the protein is unfolded. In the presence of compound 38, the Tm of MBP-AF9 protein increases in a dose-dependent manner, giving ΔTm of 1.2 degree in […] (FIG. 20B).

MBP-AF9 = biological target: T3, MBP-AF9 (Homo sapiens, UniProt P42568); experiment: ThermoFluor binding assay, MBP-AF9
T3 sequence (P42568 497-568): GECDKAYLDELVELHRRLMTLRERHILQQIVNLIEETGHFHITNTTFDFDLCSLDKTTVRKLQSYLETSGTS
Protocol: as §2, §3

MBP tag = MBP tag (Escherichia coli, UniProt P0AEX9); experiment: ThermoFluor binding assay, MBP tag only
AF9 [2] = biological target: T2, AF9; experiment: OctetRed Bio-Layer Interferometry binding to immobilized AF9; conditions: OctetRed BLI
Protocol: as §2
Finally, an orthogonal measure of the disruption of the DOT1L/AF9 protein interaction was obtained using OctetRed system with Bio-Layer Interferometry (BLI) technology. This technology is allowing label-free, real-time biomolecular analysis and determination of binding kinetics and affinity. […] Using global fitting of the binding data in several tested concentrations, the kinetic parameters were calculated. The observed KD values ranged from 10 μM to 50 μM, consistent with the KD from steady state calculations.

[3] = system: MLL-AF9 transformed mouse cells; experiment: Cell growth of MLL-AF9 transformed mouse cells; format: cell-based; conditions: 216 h
From the text: (§4) FIG. 23 presents cell growth curves of A) MLL-AF9 and B) Hoxa9/Meis1 transformed mouse cells and C) adult LSKs after treatment with 38. D) H3K79 methylation after 6 days treatment with 38 and EPZ004777 DOT1L inhibitor (see, e.g., Daigle, et al., Cancer Cell 20, 53-65 (2011)).
(§5) This example involves the assessment of cellular effects of compound 38. […] Compound 38 inhibited growth of MLL-AF9 cells in a dose-dependent manner (FIG. 23A), with cell growth inhibition starting after 4 days of treatment. […] The hypothesis predicts that compounds that can block the DOT1L recruitment, but not its catalytic activity, will not affect normal hematopoiesis, as well as the global level of H3K79 methylation. To test this hypothesis, the toxicity of compound 38 was tested on purified LSK (lin-sca-1+ckit+) progenitors from adult wild type mice (FIG. 23C).

[4] = system: HM2 cells stably expressing Hoxa9 and Meis 1; experiment: Cell growth of HM2 (Hoxa9/Meis1) cells; format: cell-based, mouse
From the text: as §4, §5

[5] = system: LSK (lin-sca-1+ckit+) progenitors; experiment: Toxicity on purified adult LSK progenitors; format: cell-based, mouse; conditions: 50 μM and 25 μM, up to seven days in culture
From the text: as §4, §5

H3K79 methylation = experiment: Global H3K79 methylation in MLL-AF9 transformed cells; format: cell-based, mouse; conditions: 6 days treatment of MLL-AF9 transformed cells
From the text: as §4, §5

AF9 [6] = biological target: T4, AF9 (Homo sapiens, UniProt P42568); experiment: SPR competitive binding assay of small molecules, AF9-DOT1L; set-up: against AF9(497-568) and ENL (489-559) proteins running different tested concentrations over CM5 chip; GB1 (pGB1-LIC vector); made in house; host or cells: Escherichia coli BL21 (DE3); conditions: SPR competitive based assay; read-out: AF9 IC50 ± SD
T4 sequence (P42568 497-568): T3 sequence (P42568 497-568)
From the text: Several secondary assays have already been developed to support hit confirmation and the hit-to-probe optimization process. The established and optimized SPR-based competitive assay utilizing DOT1L protein (826-1095) immobilized on the CM5 sensor chip was used as a secondary counter screen assay to validate binding of compounds to AF9. […] Both assays gave similar IC50 values.
as §1

How did the IC50 (ENL) turn out when `CCc1ccc(S(=O)(=O)N2c3ccccc3NC3=C(C(=O)CCC3)C2c2ccco2)cc1` (racemic) [Compound 38] was run?
The IC50 was 30.7 ± 7.7 µM.

And the “STD effects (direct binding to AF9)” value (AF9 [1])?
Its value is “strong STD effects”.

What about the “ΔTm of MBP-AF9 protein” value (MBP-AF9) of the same compound?
The value was 1.2 degree.

What about the “thermal stability of tag MBP only” value (MBP tag) of the same compound?
The value was “did not show any changes in thermal stability”.

And the Kd (AF9 [2]; several tested concentrations, read-out: KD values, global fitting of binding data)?
The Kd was 10 to 50 µM.

What about the Kd (AF9 [2]; read-out: binding affinity (KD), steady state analysis) of the same compound?
Its Kd is 35 µM.

What about the inhibition at 25 µM ([3]; day 9, 25 μM) of the same compound?
The inhibition at 25 µM was 50%.

What about the inhibition at 50 µM ([3]; day 9, 50 μM) of the same compound?
The inhibition at 50 µM was about 90%.

And the “cell growth of HM2 cells” value [4]?
The value was “not affected”.

And the “toxicity / growth inhibition of adult LSKs” value [5]?
The value was “not toxic to normal hematopoiesis”.

And the “global H3K79 methylation level” value (H3K79 methylation)?
The value was “not affected”.

And the IC50 (AF9 [6])?
Its IC50 is 40 ± 1.5 µM.
